Laboratory results: patent publication US7183415B2, “Quinoline compound” (Takeda Pharmaceutical Company Limited, priority 2001, dated 2007)

Structure (SMILES)	melting point
Cc1cc2cc(CN3CCCC3)cnc2cc1NC(=O)c1ccc(-c2ccc3ccccc3c2)cc1 [Example 222, N-[6-methyl-3-(1-pyrrolidinylmethyl)-7-quinolinyl]-4-(2-naphthyl)benzamide]	194 °C
CCc1ccc(-c2ccc(C(=O)Nc3ccc4cc(CN5CCCC5)cnc4c3C)c(F)c2)cc1 [Example 140, 4′-ethyl-3-fluoro-N-[8-methyl-3-(1-pyrrolidinylmethyl)-7-quinolinyl][1,1′-biphenyl]-4-carboxamide]	178 to 179 °C
CN(C)Cc1cnc2cc(NC(=O)c3ccc(-c4ccc(Cl)cc4)cc3)ccc2c1 [Example 1, 4′-chloro-N-[3-[(dimethylamino)methyl]-7-quinolinyl][1,1′-biphenyl]-4-carboxamide]	236 to 238 °C
O=C(Nc1cc2ncc(CN3CCCC3)cc2cc1Cl)c1ccc(-c2ccc(Cl)s2)cc1 [Example 69, N-[6-chloro-3-(1-pyrrolidinylmethyl)-7-quinolinyl]-4-(5-chlorothien-2-yl)benzamide]	185 °C
Cc1c(NC(=O)c2ccc(-c3ccc(C(F)(F)F)cc3)cc2F)ccc2cc(CN3CCCC3)cnc12 (hydrate or solvate) [Example 138, 3-fluoro-N-[8-methyl-3-(1-pyrrolidinylmethyl)-7-quinolinyl]-4′-(trifluoromethyl)[1,1′-biphenyl]-4-carboxamide]	202 to 203 °C
O=C(Nc1ccc2cc(CN3CCCC3)cnc2c1)c1ccc(-c2ccc(F)cc2)nc1 [Example 9, 6-(4-fluorophenyl)-N-[3-(1-pyrrolidinylmethyl)-7-quinolinyl]nicotinamide]	218 to 220 °C
Cc1c(NC(=O)c2ccc(-c3ccccc3)c(F)c2)ccc2cc(CN3CCCCC3)cnc12 (hydrate or solvate) [Example 175, 2-fluoro-N-[8-methyl-3-(1-piperidinylmethyl)-7-quinolinyl][1,1′-biphenyl]-4-carboxamide]	138 to 139 °C
Cc1c(NC(=O)c2ccc(OCc3ccccc3)cc2)ccc2cc(CN3CCCCC3)cnc12 [Example 161, 4-(benzyloxy)-N-[8-methyl-3-(1-piperidinylmethyl)-7-quinolinyl]benzamide]	186 to 187 °C
COc1ccc(-c2ccc(C(=O)Nc3ccc4cc(CN5CCCC5)cnc4c3C)cc2F)cc1 [Example 152, 2-fluoro-4′-methoxy-N-[8-methyl-3-(1-pyrrolidinylmethyl)-7-quinolinyl][1,1′-biphenyl]-4-carboxamide]	174 to 176 °C
O=C(Nc1ccc2cc(CN3CCCC3)cnc2c1)c1ccc(-c2ccc(F)cc2)cc1F [Example 86]	177 °C
Cc1c(NC(=O)c2ccc(-c3ccccc3)cc2F)ccc2cc(CN3CCCCC3)cnc12 (hydrate or solvate) [Example 169, 3-fluoro-N-[8-methyl-3-(1-piperidinylmethyl)-7-quinolinyl][1,1′-biphenyl]-4-carboxamide]	187 to 188 °C
Cc1cc2cc(CN3CCC(CC(=O)N4CCCCC4)CC3)cnc2cc1NC(=O)c1ccc(-c2ccc(F)cc2)cc1 [Example 265, 4′-fluoro-N-[6-methyl-3-({4-[2-oxo-2-(1-piperidinyl)ethyl]-1-piperidinyl}methyl)-7-quinolinyl][1,1′-biphenyl]-4-carboxamide]	216 °C
Cc1cc2cc(CN3CCCC3)cnc2cc1NC(=O)c1ccc(-c2ccc(F)cc2F)cc1 [Example 214, 2′,4′-difluoro-N-[6-methyl-3-(1-pyrrolidinylmethyl)-7-quinolinyl][1,1′-biphenyl]-4-carboxamide]	158 to 160 °C
Cc1cc2cc(CN3CCCC3)cnc2cc1NC(=O)c1ccc(-c2ccc(Cl)cc2)c(F)c1 [Example 235, 4′-chloro-2-fluoro-N-[6-methyl-3-(1-pyrrolidinylmethyl)-7-quinolinyl][1,1′-biphenyl]-4-carboxamide]	181 to 185 °C
Cc1c(NC(=O)c2ccc(-c3ccc4c(c3)OCO4)cc2)ccc2cc(CN3CCCC3)cnc12 (hydrate or solvate) [Example 105, 4-(1,3-benzodioxol-5-yl)-N-[8-methyl-3-(1-pyrrolidinylmethyl)-7-quinolinyl]benzamide]	171 to 172 °C
Cc1ccccc1-c1ccc(C(=O)Nc2ccc3cc(CN4CCCC4)cnc3c2C)cc1 [Example 111, 2′-methyl-N-[8-methyl-3-(1-pyrrolidinylmethyl)-7-quinolinyl][1,1′-biphenyl]-4-carboxamide]	150 to 151 °C
Cc1c(NC(=O)c2ccc(-c3ccc(F)cc3)cc2)ccc2cc(CN3CCC3)cnc12 [Example 191, N-[3-(1-azetidinylmethyl)-8-methyl-7-quinolinyl]-4′-fluoro[1,1′-biphenyl]-4-carboxamide]	153 to 155 °C
O=C(Nc1cc2ncc(CN3CCCC3)cc2cc1F)c1ccc(-c2ccc(Cl)cc2)cc1F [Example 62, 4′-chloro-3-fluoro-N-[6-fluoro-3-(1-pyrrolidinylmethyl)-7-quinolinyl][1,1′-biphenyl]-4-carboxamide]	217 to 219 °C

Structure (SMILES)	melting point
CCNC(=O)C1CCN(Cc2cnc3cc(NC(=O)c4ccc(-c5ccc(F)cc5)cc4)c(C)cc3c2)CC1 [Example 273, N-ethyl-1-[(7-{[(4′-fluoro-1,1′-biphenyl-4-yl)carbonyl]amino}-6-methyl-3-quinolinyl)methyl]piperidine-4-carboxamide]	254 °C
O=C(Nc1cc2ncc(CN3CCCC3)cc2cc1F)c1ccc(-c2ccc(F)cc2)cc1F [Example 60, 3,4′-difluoro-N-[6-fluoro-3-(1-pyrrolidinylmethyl)-7-quinolinyl][1,1′-biphenyl]-4-carboxamide]	200 to 202 °C
Cc1cc2cc(CN3CCCC3)cnc2cc1NC(=O)c1ccc(-c2ccc(F)cc2)c(F)c1 [Example 233, 2,4′-difluoro-N-[6-methyl-3-(1-pyrrolidinylmethyl)-7-quinolinyl][1,1′-biphenyl]-4-carboxamide]	163 to 166 °C
Cc1c(NC(=O)c2ccc(-c3ccccc3Cl)cc2)ccc2cc(CN3CCCC3)cnc12 (hydrate or solvate) [Example 108, 2′-chloro-N-[8-methyl-3-(1-pyrrolidinylmethyl)-7-quinolinyl][1,1′-biphenyl]-4-carboxamide]	128 to 129 °C
Cc1c(NC(=O)c2ccc(-c3ccc4c(c3)OCCO4)cc2)ccc2cc(CN3CCCC3)cnc12 (hydrate or solvate) [Example 115, 4-(2,3-dihydro-1,4-benzodioxin-6-yl)-N-[8-methyl-3-(1-pyrrolidinylmethyl)-7-quinolinyl]benzamide]	187 to 188 °C
CNC(=O)CC1CCN(Cc2cnc3cc(NC(=O)c4ccc(-c5ccc(F)cc5)cc4)c(C)cc3c2)CC1 [Example 269, 4′-fluoro-N-[6-methyl-3-({4-[2-(methylamino)-2-oxoethyl]-1-piperidinyl}methyl)-7-quinolinyl][1,1′-biphenyl]-4-carboxamide]	243 °C
Cc1c(NC(=O)c2ccc(-c3ccc(F)cc3)cc2)ccc2cc(CN3CCC(CCCC(N)=O)CC3)cnc12 [Example 206, N-(3-{[4-(4-amino-4-oxobutyl)-1-piperidinyl]methyl}-8-methyl-7-quinolinyl)-4′-fluoro[1,1′-biphenyl]-4-carboxamide]	232 to 234 °C
O=C(Nc1cc2ncc(CN3CCCC3)cc2cc1N1CCCC1)c1ccc(Br)cc1 [Example 63, 4-bromo-N-[6-(1-pyrrolidinyl)-3-(1-pyrrolidinylmethyl)-7-quinolinyl]benzamide]	171 to 173 °C
Cc1c(NC(=O)c2ccc(-c3ccc(OC(F)(F)F)cc3)cc2F)ccc2cc(CN3CCCC3)cnc12 [Example 136, 3-fluoro-N-[8-methyl-3-(1-pyrrolidinylmethyl)-7-quinolinyl]-4′-(trifluoromethoxy)[1,1′-biphenyl]-4-carboxamide]	175 to 178 °C
COc1ccc(-c2ccc(C(=O)Nc3ccc4cc(CN5CCCCCC5)cnc4c3C)cc2)cc1 [Example 179, N-[3-(1-azepanylmethyl)-8-methyl-7-quinolinyl]-4′-methoxy[1,1′-biphenyl]-4-carboxamide]	165 to 167 °C
CN1CCc2nc3cc(NC(=O)c4ccc(-c5ccc(Cl)cc5)cc4)ccc3cc2C1 [Example 326, 4′-chloro-N-(2-methyl-1,2,3,4-tetrahydrobenzo[b][1,6]naphthyridin-7-yl)[1,1′-biphenyl]-4-carboxamide]	> 220 °C (dec.)
Cc1ccc(-c2ccc(C(=O)Nc3ccc4cc(CN5CCCCCC5)cnc4c3)cn2)cc1 [Example 33, N-[3-(1-azepanylmethyl)-7-quinolinyl]-6-(4-methylphenyl)nicotinamide]	237 °C (dec.)
CC(=O)NC1CCN(Cc2cnc3cc(NC(=O)c4ccc(-c5ccc(Cl)cc5)cc4)ccc3c2)C1 (centres unmarked) [Example 92, N-(3-{[3-(acetylamino)-1-pyrrolidinyl]methyl}-7-quinolinyl)-4′-chloro-[1,1′-biphenyl]-4-carboxamide]	> 285 °C
Cc1c(NC(=O)c2ccc(-c3ccccc3F)cc2)ccc2cc(CN3CCCC3)cnc12 [Example 99, 2′-fluoro-N-[8-methyl-3-(1-pyrrolidinylmethyl)-7-quinolinyl][1,1′-biphenyl]-4-carboxamide]	133 to 135 °C
COc1ccc(-c2ccc(C(=O)Nc3ccc4cc(CN5CCCC5)cnc4c3F)c(F)c2)cc1 [Example 79, 3-fluoro-N-[8-fluoro-3-(1-pyrrolidinylmethyl)-7-quinolinyl]-4′-methoxy[1,1′-biphenyl]-4-carboxamide]	182 to 183 °C
CCNC(=O)CC1CCN(Cc2cnc3cc(NC(=O)c4ccc(-c5ccc(F)cc5)cc4)ccc3c2)CC1 [Example 44, N-[3-({4-[2-(ethylamino)-2-oxoethyl]-1-piperidinyl}methyl)-7-quinolinyl]-4′-fluoro[1,1′-biphenyl]-4-carboxamide]	224 to 227 °C
O=C(Nc1ccc2cc(CN3CCCC3)cnc2c1)N1CCC(c2ccc(F)cc2)CC1 [Example 14, 4-(4-fluorophenyl)-N-[3-(1-pyrrolidinylmethyl)-7-quinolinyl]-1-piperidine carboxamide]	239 to 241 °C
